What was measured:
Type in all cases: physicochemical
[1] = Absorption and emission (PL) spectra in THF solution; conditions: for emission spectra peak / maximum absorption: 10 μM
Experimental: (§1) First, the absorption and emission spectra were recorded. From FIG. 3a, the maximum absorptions of TPE-TBT and TPA-TBT are located at 582 and 620 nm, respectively, which display a redshift because of the enhancement of D-A strength from TPE-TBT to TPA-TBT. In addition, the emission spectra of the two molecules peaked at 750 and 830 nm, respectively (FIG. 3b). […] The aggregation behaviors of the compounds were then investigated. After adding poor solvent water to the THE solution, the fluorescence intensities of the two luminogens are first reduced at low water fractions (0-50% of water) resulting from the twisted intramolecular charge transfer (TICT) effect.

[2] = Fluorescence quantum yield (QY)
Experimental: The fluorescence quantum yield (QY) of the two compounds in the solid state, NPs, THF, and other solvents, were also measured (FIG. 3d).
For better use in cancer theranostic, TPA-TBT and TPE-TBT were fabricated into nanoparticles (NPs) through the nanoprecipitation method using DSPE-PEG2000 as an encapsulation matrix. The hydrodynamic diameters of the two NPs were confirmed by dynamic light scattering (DLS). […] The UV/Vis absorption and fluorescence emission spectra of the two kinds of NPs were also measured, and the results are similar to that in the THF solutions. The fluorescence quantum yield (QY) of the two compounds in the solid state, NPs, THF, and other solvents, were also measured (FIG. 3d). […] ROS production efficiency and PCE were investigated to further explore the phototherapy potential of these AIEgens. We utilized a common ROS indicator Dichlorofluorescin Diace (H2DCF-DA), whose fluorescence can be sensitively activated by ROS, to indicate the overall ROS generation. From FIG. 3e, the fluorescence intensity of H2DCF-DA intensified rapidly in the presence of TPA-TBT NPs. Finally, it reached around 210-fold more robust than the initial intensity after 5 min upon white light irradiation, displaying a much higher ROS production efficiency than TPE-TBT NPs. […] While the PCE of TPE-TBT NPs is only 30%. Considering all the aspects, TPA-TBT NPs show longer fluorescence emission wavelength, higher ROS generation efficiency, and better photothermal efficiency. Therefore, TPA-TBT NPs are more promising for applications in the field of phototheranostic for synergistic cancer therapy.

[3] = Aggregation behaviour (AIE) in THF/water mixtures; conditions: increasing water fraction
Experimental: as §1

Row | emission spectra peak [1] [nm] | maximum absorption [1] [nm] | fluorescence quantum yield (QY) ([2]; THE solution / solution state) | Stokes shift [1] [nm] | AIE intensity enhancement [3] [fold] | fluorescence quantum yield (QY) ([2]; solid state) [%] | SMILES
1 | 750 | 582 | remarkable QY |  |  |  | CCCCCCC(CCCC)Cc1cc(-c2ccc(C(=C(c3ccc(OC)cc3)c3ccc(OC)cc3)c3ccccc3)cc2)sc1-c1c2c(c(-c3sc(-c4ccc(C(=C(c5ccc(OC)cc5)c5ccc(OC)cc5)c5ccccc5)cc4)cc3CC(CCCC)CCCCCC)c3nn(CC(CC)CCCC)nc13)N=S=N2 (stereo not drawn) [TPE-TBT]
2 | 830 | 620 | 5% | 210 | 3 | 13 | CCCCCCC(CCCC)Cc1cc(-c2ccc(N(c3ccc(OC)cc3)c3ccc(OC)cc3)cc2)sc1-c1c2c(c(-c3sc(-c4ccc(N(c5ccc(OC)cc5)c5ccc(OC)cc5)cc4)cc3CC(CCCC)CCCCCC)c3nn(CC(CC)CCCC)nc13)N=S=N2 (stereo not drawn) [TPA-TBT]
